In the experiment the target is Peroxisome proliferator-activated receptor alpha (Mesocricetus auratus). Briefly: Agonist activity against hamster Peroxisome proliferator activated receptor alpha.

With `CCCc1cc2c(C(F)(F)F)noc2c(CCC)c1OC(C)(C)C(=O)O` [2-(5,7-Dipropyl-3-trifluoromethyl-benzo[d]isoxazol-6-yloxy)-2-methyl-propionic acid], the EC50 turned out to be 460 nM.
